Each molecule was assayed against T1, P2X7 receptor (Homo sapiens, UniProt Q99572) (assay: P2X7 calcium mobilization assay, high throughput, antagonist activity (Example 4A)). Conditions: not given.
T1 construct: host or cells: SH-SY5Y
T1 sequence (Q99572 1-595): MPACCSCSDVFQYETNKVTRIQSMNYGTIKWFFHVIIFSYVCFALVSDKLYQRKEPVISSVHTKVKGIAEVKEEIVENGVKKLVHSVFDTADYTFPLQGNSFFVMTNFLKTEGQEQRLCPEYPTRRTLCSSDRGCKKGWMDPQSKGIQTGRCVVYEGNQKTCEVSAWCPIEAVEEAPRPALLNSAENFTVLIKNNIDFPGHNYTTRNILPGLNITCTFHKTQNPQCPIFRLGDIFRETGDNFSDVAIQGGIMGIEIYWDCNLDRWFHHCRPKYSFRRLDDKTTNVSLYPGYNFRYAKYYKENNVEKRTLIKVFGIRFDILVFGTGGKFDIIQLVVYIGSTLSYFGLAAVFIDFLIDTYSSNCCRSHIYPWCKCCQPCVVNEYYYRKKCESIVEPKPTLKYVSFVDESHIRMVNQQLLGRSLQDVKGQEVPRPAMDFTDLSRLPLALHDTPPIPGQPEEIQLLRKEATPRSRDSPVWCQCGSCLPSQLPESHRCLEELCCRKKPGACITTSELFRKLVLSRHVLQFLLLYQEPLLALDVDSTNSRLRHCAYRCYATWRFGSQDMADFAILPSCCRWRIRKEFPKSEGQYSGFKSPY
Type: cell-based
Summary of the method: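 Antagonism was measured as calcium fluorescence (FLIPR Tetra) in cells seeded one day earlier at 100,000/well, loaded with dye for 1 h and exposed to compound for 1 h at room temperature before agonist. Peak RFU, minus the no-agonist background, was referenced to the mean of the agonist wells.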

Compound	IC50 [nM]
CC(C)CC(CNC(=O)c1cccc2nc(CC(=O)N3CCC4(CC3)OCCO4)cn12)c1ccccc1 (centres unmarked) [Compound 247, 2-[2-(1,4-dioxa-8-azaspiro[4.5]dec-8-yl)-2-oxoethyl]-N-(4-methyl-2-phenylpentyl)imidazo [1,2-a]pyridine-5-carboxamide]	< 2000

Same assay, conditions: 50% decrease in the fluorescence response of cells exposed to 80 μM 2′(3′)-O-(4-benzoyl-benzoyl)adenosine 5′-triphosphate; Example 4A; read-out: IC50

Compound	IC50 [nM]
CC1(C)[C@@H]2CC[C@@H](CNC(=O)c3cccc4nc(CC(=O)N5CCC[C@@H]5CN)cn34)[C@H]1C2 [Compound 584, 2-{2-[(2R)-2-(aminomethyl)pyrrolidin-1-yl]-2-oxoethyl}-N-{[(1R,2R,5R)-6,6-dimethylbicyclo [3.1.1]hept-2-yl]methyl}imidazo [1,2-a]pyridine-5-carboxamide]	< 2000
O=C(NCC12CC3CC(CC(C3)C1)C2)c1cccc2nc(CC(=O)N3CC[C@@H](O)C3)cn12 [Compound 531, N-(adamantan-1-ylmethyl)-2-{2-[(3R)-3-hydroxypyrrolidin-1-yl]-2-oxoethyl}imidazo[1,2-a]pyridine-5-carboxamide]	< 2000
Cc1cc(-c2cn3c(C(=O)NCC(CC(C)C)c4cccnc4)cccc3n2)n[nH]1 (centres unmarked) [Compound 595, 2-(5-methyl-1H-pyrazol-3-yl)-N-(4-methyl-2-pyridin-3-ylpentyl)imidazo[1,2-a]pyridine-5-carboxamide]	< 2000
C[C@@H]1CNCCN1C(=O)Cc1cn2c(C(=O)NC[C@@H]3CC[C@@H]4C[C@H]3C4(C)C)cccc2n1 [Compound 561, N-{[(1R,2R,5R)-6,6-dimethylbicyclo[3.1.1]hept-2-yl]methyl}-2-{2-[(2R)-2-methylpiperazin-1-yl]-2-oxoethyl}imidazo[1,2-a]pyridine-5-carboxamide]	< 2000

Same assay, conditions: 50% decrease in the fluorescence response of cells exposed to 80 μM of 2′(3′)-O-(4-benzoyl-benzoyl)adenosine 5′-triphosphate; Example 4A; read-out: IC50

Compound	IC50 [nM]
O=C(NCC12CC3CC(CC(C3)C1)C2)c1cccc2nc(C(=O)N3CCCN(C4CCC4)CC3)cn12 [Compound 714, N-(adamantan-1-ylmethyl)-2-[(4-cyclobutyl-1,4-diazepan-1-yl)carbonyl]imidazo[1,2-a]pyridine-5-carboxamide]	< 2000
CC(C)(C)NCCOC(=O)c1cn2c(C(=O)NCC34CC5CC(CC(C5)C3)C4)cccc2n1 [Compound 696, 2-(tert-butylamino)ethyl 5-[(adamantan-1-ylmethyl)carbamoyl] imidazo[1,2-a] pyridine-2-carboxylate]	< 2000
N[C@@H]1CCN(Cc2cn3c(C(=O)NCC(CC4CCCC4)c4ccccc4)cccc3n2)C1 (some centres unmarked) [Compound 786, 2-[(3-aminopyrrolidin-1-yl)methyl]-N-(3-cyclopentyl-2-phenylpropyl) imidazo[1,2-a] pyridine-5-carboxamide]	< 2000
CN(C)C1CCCN(C(=O)Cc2cn3c(C(=O)NCC45CC6CC(CC(C6)C4)C5)cccc3n2)C1 (centres unmarked) [Compound 740, N-(adamantan-1-ylmethyl)-2-{2-[3-(dimethylamino)piperidin-1-yl]-2-oxoethyl}imidazo[1,2-a]pyridine-5-carboxamide]	< 2000
O=C(O)c1cn2c(C(=O)NCC34CC5CC(CC(C5)C3)C4)cccc2n1 [Compound 686, 5-[(adamantan-1-ylmethyl)carbamoyl] imidazo[1,2-a] pyridine-2-carboxylic acid]	< 2000

Same assay, conditions: 50% decrease in the fluorescence response of cells exposed to 80 μM of 2′(3′)-O-(4-benzoyl-benzoyl)adenosine 5′-triphosphate; determined as in Example 4A; read-out: IC50

Compound	IC50 [nM]
O=C(NCC1(c2ccc(Cl)cc2)CCCCC1)c1cccc2nc(C(Cc3ccccc3)C(=O)O)cn12 (centres unmarked) [Compound 936, 2-[5-({[1-(4-chlorophenyl)cyclohexyl]methyl}carbamoyl)imidazo[1,2-a]pyridin-2-yl]-3-phenylpropanoic acid]	< 2000
CCOC(=O)C(Cc1ccc(Cl)cc1)c1cn2c(C(=O)NCC3(c4ccc(Cl)cc4)CCCCC3)cccc2n1 (centres unmarked) [Compound 934, ethyl 3-(4-chlorophenyl)-2-[5-({[1-(4-chlorophenyl)cyclohexyl]methyl}carbamoyl)imidazo[1,2-a]pyridin-2-yl]propanoate]	< 2000
O=C(Cc1cn2c(C(=O)NCC3(c4cccnc4)CCCCC3)cccc2n1)NCC(F)(F)F [Compound 874, 2-{2-oxo-2-[(2,2,2-trifluoroethyl)amino]ethyl}-N-[(1-pyridin-3-ylcyclohexyl)methyl] imidazo[1,2-a] pyridine-5-carboxamide]	< 2000
CCOC(=O)C1(c2cn3c(C(=O)NCC45CC6CC(CC(C6)C4)C5)cccc3n2)CCCCC1 [Compound 849, ethyl 1-{5-[(adamantan-1-ylmethyl)carbamoyl]imidazo[1,2-a]pyridin-2-yl} cyclohexane-carboxylate]	< 2000
O=C(NCC12CC3CC(CC(C3)C1)C2)c1cccc2nc(CC(=O)N3CCS(=O)(=O)CC3)cn12 [Compound 820, N-(adamantan-l-ylmethyl)-2-[2-(1,1-dioxidothio-morpholin-4-yl)-2-oxoethyl] imidazo[1,2-a] pyridine-5-carboxamide]	< 2000
O=C(NCC1(c2ccc(Cl)cc2)CCCCC1)c1cccc2nc(C(CC3CC3)C(=O)O)cn12 (centres unmarked) [Compound 1010, 2-[5-({[1-(4-chlorophenyl)cyclohexyl]methyl}carbamoyl)imidazo[1,2-a]pyridin-2-yl]-3-cyclopropylpropanoic acid]	< 2000
NC(=O)c1cccc(NC(=O)Cc2cn3c(C(=O)NCC4CCCCCC4)cccc3n2)c1 [Compound 955, 2-{2-[(3-carbamoylphenyl)amino]-2-oxoethyl}-N-(cycloheptylmethyl) imidazo[1,2-a] pyridine-5-carboxamide]	< 2000
O=C(Cc1cn2c(C(=O)NCC3(c4ccc(Cl)cc4)CCCCC3)cccc2n1)NCC(F)(F)F [Compound 875, N-{[1-(4-chlorophenyl)cyclohexyl]methyl}-2-{2-oxo-2-[(2,2,2-trifluoroethyl)amino]ethyl} imidazo[1,2-a] pyridine-5-carboxamide]	< 2000

Same assay, conditions: SH-SY5Y cells; 50% decrease in fluorescence response to 80 μM BzATP; read-out: IC50

Compound	IC50 [nM]
O=C(NCC12CC3CC(CC(C3)C1)C2)c1cccc2nc(CC(=O)N3CCCCC3)cn12 [Compound 181, N-(adamantan-1-ylmethyl)-2-(2-oxo-2-piperidin-1-ylethyl)imidazo[1,2-a]pyridine-5-carboxamide]	< 2000
O=C(NCC12CC3CC(CC(C3)C1)C2)c1cccc2nc(CC(=O)N3CCCC(O)C3)cn12 (centres unmarked) [Compound 53, N-(adamantan-1-ylmethyl)-2-[2-(3-hydroxypiperidin-1-yl)-2-oxoethyl]imidazo[1,2-a]pyridine-5-carboxamide]	< 2000
O=C(NCC12CC3CC(CC(C3)C1)C2)c1cccc2nc(CN3CCNCC3)cn12 [Compound 5, N-(adamantan-1-ylmethyl)-2-(piperazin-1-ylmethyl)imidazo[1,2-a]pyridine-5-carboxamide]	< 2000
N[C@H]1CCN(Cc2cn3c(C(=O)NCC45CC6CC(CC(C6)C4)C5)cccc3n2)C1 [Compound 188, N-(adamantan-1-ylmethyl)-2-{[(3S)-3-aminopyrrolidin-1-yl]methyl}imidazo[1,2-a]pyridine-5-carboxamide]	< 2000
C[C@@H](O)CNC(=O)c1cn2c(C(=O)NCC34CC5CC(CC(C5)C3)C4)cccc2n1 [Compound 81, 5-N-(adamantan-1-ylmethyl)--[(2R)-2-hydroxy-propyl]imidazo[1,2-a]pyridine-2,5-dicarboxamide]	< 2000
N[C@@H]1CCN(C(=O)c2cn3c(C(=O)NCC45CC6CC(CC(C6)C4)C5)cccc3n2)C1 [Compound 129, N-(adamantan-1-ylmethyl)-2-{[(3R)-3-aminopyrrolidin-1-yl]carbonyl}imidazo[1,2-a]pyridine-5-carboxamide]	< 2000

Same assay, conditions: fluorescence response of cells exposed to 80 μM 2′(3′)-O-(4-benzoyl-benzoyl)adenosine 5′-triphosphate; Example 4A; read-out: IC50

Compound	IC50 [nM]
CC(C)(C)NCCOC(=O)c1cn2c(NC(=O)CC34CC5CC(CC(C5)C3)C4)cccc2n1 [Compound 411, 2-(tert-butylamino)ethyl 5-[(adamantan-1-ylacetyl)amino] imidazo [1,2-a]pyridine-2-carboxylate]	< 2000
O=C(CC12CC3CC(CC(C3)C1)C2)Nc1cccc2nc(C(=O)N3CCC(C(F)(F)F)CC3)cn12 [Compound 382, 2-adamantan-1-yl-N-(2-{[4-(trifluoromethyl)piperidin-1-yl]carbonyl}imidazo[1,2-a]pyridin-5-yl)acetamide]	< 2000
CC(C)CC(CNC(=O)c1cccc2nc(CC(=O)N3CCCCC3)cn12)c1ccccc1 (centres unmarked) [Compound 243, N-(4-methyl-2-phenylpentyl)-2-(2-oxo-2-piperidin-1-ylethyl)imidazo[1,2-a]pyridine-5-carboxamide]	< 2000
CC1(C)[C@H]2CC[C@@H](CNC(=O)c3cccc4nc(C(=O)N5CCCNCC5)cn34)[C@@H]1C2 [Compound 304, 2-(1,4-diazepan-1-ylcarbonyl)-N-{[(1S,2R,5S)-6,6-dimethylbicyclo[3.1.1]hept-2-yl]methyl}imidazo[1,2-a]pyridine-5-carboxamide]	< 2000
CCOC(=O)Cc1cn2c(C(=O)NC(C)C34CC5CC(CC(C5)C3)C4)cccc2n1 (centres unmarked) [Compound 281, ethyl {5-[(1-adamantan-1-ylethyl)carbamoyl]imidazo[1,2-a]pyridin-2-yl}acetate]	< 2000

From patent US8431593B2, “Heteroaryl amide derivatives” (H. Lundbeck A/S, priority 2006, dated 2013)
